Measurements reported in ChEMBL document CHEMBL1201862, “PubChem BioAssay data set” (2004).
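In this assay, cells in 96-well plates receive the compound at five concentrations for 48 hours. Endpoints are linearly interpolated between the surrounding concentrations. Abbreviation: GI50, concentration required for 50% inhibition of growth.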 Calls of active or inactive are those of the source. No stated cut-off is given here; in the data, active = GI50 up to about 1.1 µM and inactive = higher.

What was measured:
Assay in all cases: DTP human tumour cell line panel, 48 h
A498 = tested on: A498
A549 = tested on: A549
HCC 2998 = tested on: HCC 2998
HOP-92 = tested on: HOP-92
K562 = tested on: K562
KM12 = tested on: KM12
MDA-MB-231 = tested on: MDA-MB-231
Malme-3M = tested on: Malme-3M
NCI-H226 = tested on: NCI-H226
NCI-H23 = tested on: NCI-H23
NCI-H460 = tested on: NCI-H460
OVCAR-8 = tested on: OVCAR-8
SF-295 = tested on: SF-295
SK-MEL-28 = tested on: SK-MEL-28
SN12C = tested on: SN12C
SNB-75 = tested on: SNB-75
SR = tested on: SR
SW-620 = tested on: SW-620
TK-10 = tested on: TK-10
UO-31 = tested on: UO-31

Measured: GI50

COc1cc(C2c3cc4c(cc3OC(N3CCCCC3)C2C)OCO4)cc(OC)c1OC (stereo not given)
inactive: A498 3.38 µM | A549 4.04 µM | HCC 2998 2.9 µM | HOP-92 10.4 µM | K562 2.44 µM | KM12 2.88 µM | MDA-MB-231 4.98 µM | Malme-3M 5.83 µM | NCI-H226 3.39 µM | NCI-H23 3.41 µM | NCI-H460 3.52 µM | OVCAR-8 5.11 µM | SF-295 1.75 µM | SK-MEL-28 10.5 µM | SN12C 6.07 µM | SNB-75 4.47 µM | SR 3.27 µM | SW-620 3.2 µM | TK-10 7.71 µM | UO-31 5.02 µM

Cn1ccc(C(=O)NCCN(CCNC(=O)c2ccn(C)c(=O)c2O)CCNC(=O)c2ccn(C)c(=O)c2O)c(O)c1=O
inactive: A498 > 100 µM | A549 > 100 µM | HCC 2998 > 100 µM | HOP-92 > 100 µM | K562 > 100 µM | KM12 > 100 µM | MDA-MB-231 > 100 µM | Malme-3M > 100 µM | NCI-H226 > 100 µM | NCI-H23 > 100 µM | NCI-H460 > 100 µM | OVCAR-8 > 100 µM | SF-295 > 100 µM | SK-MEL-28 > 100 µM | SN12C > 100 µM | SNB-75 > 100 µM | SR > 100 µM | SW-620 > 100 µM | TK-10 > 100 µM | UO-31 > 100 µM

C(/C=N/c1ccccc1)=C(/Nc1ccccc1)C12CC3CC(CC(C3)C1)C2
inactive: A498 23.8 µM | A549 24.1 µM | HCC 2998 15.8 µM | HOP-92 25.2 µM | K562 7.23 µM | KM12 17 µM | MDA-MB-231 16.3 µM | Malme-3M 18.5 µM | NCI-H226 19.2 µM | NCI-H23 18.3 µM | NCI-H460 23.6 µM | OVCAR-8 20.7 µM | SF-295 16.6 µM | SK-MEL-28 20.5 µM | SN12C 18.8 µM | SNB-75 20.9 µM | SR 11 µM | SW-620 14 µM | TK-10 21.4 µM | UO-31 15.1 µM
